Data published in US8802691B2 (priority 2009, dated 2014).
Read-outs that look alike come from different tables or passages of the source.

What was measured:
canine Leishmaniosis [1] = conditions: conventional treatments monitored by serology, bibliography, cited from earlier work
Leishmania infantum = assay: Circulating monocyte-derived macrophages from treated healthy dogs, in vitro infection with Leishmania infantum promastigotes; assay type: cell-based
Excerpt: It is designed as a prospective monocentric study. A total of 10 dogs have been included, each of them acting as its own control, for which reason it has not been considered necessary the use of a negative control. […] During the study several visits are paid the days 0 (basal), 15 and 30 of treatment, and days 60 and 90 (one and two months after finishing the treatment, respectively). During each visit blood is collected from animals and it is processed to isolate and culture monocytes-macrophages, which are then co-cultivated with Leishmania promastigotes. After 48 hours the nitroblue tetrazolium (NBT) reduction test is carried out on the cultures and the percentage of parasited macrophages and the number of amastigotes per macrophage were measured. Blood samples are also collected on days 0 and 90 to assess animal health by biochemical and haemathological analyses.

monocytes = assay: NBT reduction test in whole blood of healthy dogs: activated monocytes; assay type: in vivo, dog
Experimental: (§1) 20 dogs of different breed, sex and age, were randomly distributed into two groups of 10. […] During the study several visits were paid (days 0, 15, 30, 60 and 90) during which some clinical examinations were done and blood samples were collected for biochemical, haemathological and serological analyses (DAT). The percentages of activated monocytes and neutrophils were determined in whole blood samples through the nitroblue tetrazolium (NBT) reduction test.

canine Leishmaniosis [2] = assay: Clinical study of Domperidone alone in dogs with initial stage Leishmaniosis (Example 6); assay type: in vivo, dog; conditions: for percentage of dogs with antibody titre lower than DAY 0: oral 1 mg/kg/12 h (<30 kg) or 0.7 mg/kg/12 h for 30 days, 70 dogs
Experimental: A clinical study was performed including a group of 70 dogs with an initial stage of Leishmaniosis (antibody titre against Leishmania between 1/800 and 1/1600-threshold of positively 1/800-and oligosymptomatics).
[…] During said controls different immunological (antibody titre against Leishmania-DAT, intradermoreaction test-Leishmanina), clinical (clinical symptoms, body weight) and analytical (biochemical profile, haematology, proteinogram and urine test for the determination of UPC ratio) parameters were assessed.

prolactine hormone = conditions: for Tmax of prolactine (time to maximum prolactine concentration), mean: male dog, serum
Experimental: During each of the 7 phases blood samples were extracted at different times (t=0 h, 0.5 h, 1 h, 2 h, 4 h, 6 h, 8 h, 10 h, 12 h, 18 h, 36 y 48 h) for determining serum concentrations of prolactine using a commercial immuno enzymatic assay kit.

canine Leishmaniosis [3] = assay: Controlled study of a domperidone treatment plan in seronegative dogs in an endemic area (Example 5); assay type: in vivo, dog; conditions: treated group n = 120, two 30-day treatments at 0.5 mg/kg/day oral
Excerpt: The study lasted for 9 months, beginning at the onset of the activity period of the vector insect in the geographical area in which animals were found and closing three months after the end of this period. The presence of the vector was confirmed before starting the treatment.
The remaining 120 animals received a placebo under an equivalent dosage regime.

L. Infantum = conditions: 2 mg/kg/day, dogs infected with L. Infantum, ES 2246142; cited from earlier work
neutrophils = assay: NBT reduction test in whole blood of healthy dogs: activated neutrophils; assay type: in vivo, dog
Experimental: as §1

canine Leishmaniosis [4] = system: canine Leishmaniosis
[5] = sample of Day 0 (basal), dogs given 0.5 mg/kg/day oral for 30 days
[6] = sample of Day 15, dogs given 0.5 mg/kg/day oral for 30 days
[7] = sample of Day 30, dogs given 0.5 mg/kg/day oral for 30 days
[8] = sample of Day 60 (one month after end of treatment)
[9] = sample of Day 90 (two months after end of treatment)
[10] = Day 0 (before treatment), 0.5 mg/kg/day oral for 30 days, healthy dogs n = 10
[11] = Day 15, 0.5 mg/kg/day oral for 30 days, healthy dogs n = 10
[12] = Day 30, 0.5 mg/kg/day oral for 30 days, healthy dogs n = 10
[13] = Day 90 (60 days after end of treatment), 0.5 mg/kg/day oral for 30 days

Oc1ncnc2[nH]ncc12 [Alopurinol]
time after onset of treatment until decrease in the antibody titre against Leishmania is observed (canine Leishmaniosis [1]): ≥ 180 days
time after onset of treatment until decrease in the antibody titre against Leishmania is observed (canine Leishmaniosis [1]; listed as alopurinol): 180 days

O=c1[nH]c2ccccc2n1CCCN1CCC(n2c(=O)[nH]c3cc(Cl)ccc32)CC1 [Domperidone]
number of amastigotes per macrophage after 48 hours of in vitro co-culture with Leishmania infantum promastigotes, mean (Leishmania infantum; [5]): 44.4
percentage of positive NBT macrophages after 48 hours of co-culture with Leishmania infantum promastigotes, mean (Leishmania infantum; [5]): 2.00%
number of amastigotes per macrophage after 48 hours of in vitro co-culture with Leishmania infantum promastigotes, mean (Leishmania infantum; [6]): 9.7
percentage of positive NBT macrophages after 48 hours of co-culture with Leishmania infantum promastigotes, mean (Leishmania infantum; [6]): 61.10%
number of amastigotes per macrophage after 48 hours of in vitro co-culture with Leishmania infantum promastigotes, mean (Leishmania infantum; [7]): 11.3
percentage of positive NBT macrophages after 48 hours of co-culture with Leishmania infantum promastigotes, mean (Leishmania infantum; [7]): 62.20%
number of amastigotes per macrophage after 48 hours of in vitro co-culture with Leishmania infantum promastigotes, mean (Leishmania infantum; [8]): 23.1
percentage of macrophages infected after 48 hours of in vitro culture with Leishmania infantum promastigotes, mean (Leishmania infantum; [8]): 82.6%
percentage of positive NBT macrophages after 48 hours of co-culture with Leishmania infantum promastigotes, mean (Leishmania infantum; [8]): 1.70%
number of amastigotes per macrophage after 48 hours of in vitro co-culture with Leishmania infantum promastigotes, mean (Leishmania infantum; [9]): 42.6
percentage of macrophages infected after 48 hours of in vitro culture with Leishmania infantum promastigotes, mean (Leishmania infantum; [9]): 89.5%
percentage of positive NBT macrophages after 48 hours of co-culture with Leishmania infantum promastigotes, mean (Leishmania infantum; [9]): 1.80%
percentage of activated monocytes, mean (monocytes; [10]): 3.200%
percentage of activated monocytes, mean (monocytes; [11]): 26.10%
percentage of activated monocytes, mean (monocytes; [12]): 26.40%
percentage of activated monocytes, mean (monocytes; Day 60 (30 days after end of treatment), 0.5 mg/kg/day oral for 30 days): 8.600%
percentage of activated monocytes, mean (monocytes; [13]): 3.100%
percentage of dogs with antibody titre lower than DAY 0 (canine Leishmaniosis [2]; DAY 30): 10%
percentage of dogs with antibody titre lower than DAY 0 (canine Leishmaniosis [2]; DAY 90): 47%
percentage of dogs with antibody titre lower than DAY 0 (canine Leishmaniosis [2]; DAY 180): 57%
animals with total disappearance of clinical symptoms (mainly lymphadenopathy) (canine Leishmaniosis [2]; in the course of the 12 months after the onset of the treatment): 100%
average concentrations of prolactine in the first 36 hours after administration versus placebo (prolactine hormone; all six dosages 0.125-4 mg/kg, single oral dose): remained above the prolactine concentration in the group treated with the placebo
Tmax of prolactine (time to maximum prolactine concentration), mean (prolactine hormone; single oral dose 0.125 mg/kg): 8.6 h
Tmax of prolactine (time to maximum prolactine concentration), mean (prolactine hormone; single oral dose 0.250 mg/kg): 7.2 h
Tmax of prolactine (time to maximum prolactine concentration), mean (prolactine hormone; single oral dose 0.5 mg/kg): 3.7 h
Tmax of prolactine (time to maximum prolactine concentration), mean (prolactine hormone; single oral dose 1 mg/kg): 2.7 h
Tmax of prolactine (time to maximum prolactine concentration), mean (prolactine hormone; single oral dose 2 mg/kg): 5.0 h
Tmax of prolactine (time to maximum prolactine concentration), mean (prolactine hormone; single oral dose 4 mg/kg): 4.6 h
animals with seropositivity against Leishmania (DAT≧1/400) at the end of the study (canine Leishmaniosis [3]): 0%
animals showing clinical symptoms indicative of adverse reactions attributable to the medication (canine Leishmaniosis [3]; 9 months): None
Animals WITH signs of canine Leishmaniosis, accumulated percentage (canine Leishmaniosis [3]; end of study (9th month)): 0%
Animals WITHOUT signs of canine Leishmaniosis, accumulated percentage (canine Leishmaniosis [3]; end of study (9th month)): 100%
effect on clinical signs of Leishmaniosis and level of antibodies (L. Infantum): able to reduce the clinical signs of Leishmaniosis and/or to reduce the level of antibodies in infected animals
percentage of activated neutrophils, mean (neutrophils; [10]): 5.700%
percentage of activated neutrophils, mean (neutrophils; [11]): 38.50%
percentage of activated neutrophils, mean (neutrophils; [12]): 40.00%
percentage of activated neutrophils, mean (neutrophils; [13]): 5.900%
Animals WITH signs of canine Leishmaniosis, accumulated percentage (canine Leishmaniosis [4]; 0.5 mg/kg, 720 h): 11%
Animals WITHOUT signs of canine Leishmaniosis, accumulated percentage (canine Leishmaniosis [4]; 0.5 mg/kg, 720 h): 85%
Animals WITH signs of canine Leishmaniosis, accumulated percentage (canine Leishmaniosis [4]; treated group n = 45, 0.5 mg/kg/day for 30 days each four months, end of study (second year), highly endemic area): 11%
